{
  "source": "patent US11453703B2",
  "about": "“Heterotandem bicyclic peptide complexes” (BicycleTX Limited, priority 2018, dated 2022)",
  "key": {"[1]": {"molecular_target": "human EphA2 protein (Homo sapiens, UniProt P29317)", "sequence (P29317 24-976)": "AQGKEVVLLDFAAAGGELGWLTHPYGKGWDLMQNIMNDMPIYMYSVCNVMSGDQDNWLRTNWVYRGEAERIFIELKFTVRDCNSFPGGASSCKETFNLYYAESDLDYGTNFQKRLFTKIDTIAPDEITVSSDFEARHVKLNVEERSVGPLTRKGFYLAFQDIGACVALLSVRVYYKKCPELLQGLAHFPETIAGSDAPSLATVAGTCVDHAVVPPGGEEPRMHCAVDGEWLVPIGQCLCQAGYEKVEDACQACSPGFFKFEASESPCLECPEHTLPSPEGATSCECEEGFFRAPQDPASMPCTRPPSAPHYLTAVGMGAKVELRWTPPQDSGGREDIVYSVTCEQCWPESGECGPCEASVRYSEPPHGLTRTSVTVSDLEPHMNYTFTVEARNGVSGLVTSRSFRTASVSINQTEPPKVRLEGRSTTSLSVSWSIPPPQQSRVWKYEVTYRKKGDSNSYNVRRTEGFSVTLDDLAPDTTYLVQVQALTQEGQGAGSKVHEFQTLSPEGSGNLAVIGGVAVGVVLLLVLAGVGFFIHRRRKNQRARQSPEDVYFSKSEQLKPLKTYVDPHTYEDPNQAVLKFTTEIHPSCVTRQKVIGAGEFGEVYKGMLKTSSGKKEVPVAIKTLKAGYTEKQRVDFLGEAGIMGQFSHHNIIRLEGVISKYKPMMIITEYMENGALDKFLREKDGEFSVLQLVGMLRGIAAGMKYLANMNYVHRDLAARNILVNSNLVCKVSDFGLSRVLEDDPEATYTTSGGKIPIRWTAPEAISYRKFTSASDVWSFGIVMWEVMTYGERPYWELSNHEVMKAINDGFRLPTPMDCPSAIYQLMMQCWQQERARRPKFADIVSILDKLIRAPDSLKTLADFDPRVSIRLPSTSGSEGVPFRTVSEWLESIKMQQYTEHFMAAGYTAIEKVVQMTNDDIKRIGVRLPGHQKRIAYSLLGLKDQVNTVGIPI", "assay": "EphA2 Biacore (SPR) binding assay", "conditions": "biotinylated human EphA2, 25° C.", "description": "Biacore experiments were performed to determine ka (M^−1s^−1), kd (s^−1), KD (nM) values of heterotandem peptides binding to human EphA2 protein.\nEphA2 were biotinylated with EZ-Link™ Sulfo-NHS-LC-Biotin for 1 hour in 4 mM sodium acetate, 100 mM NaCl, pH 5.4 with a 3× molar excess of biotin over protein. The degree of labelling was determined using a Fluorescence Biotin Quantification Kit (Thermo) after dialysis of the reaction mixture into PBS. For analysis of peptide binding, a Biacore T200 instrument was used with a XanTec CMD500D chip. Streptavidin was immobilized on the chip using standard amine-coupling chemistry at 25° C. with HBS-N (10 mM HEPES, 0.15 M NaCl, pH 7.4) as the running buffer. Briefly, the carboxymethyl dextran surface was activated with a 7 min injection of a 1:1 ratio of 0.4 M 1-ethyl-3-(3-dimethylaminopropyl) carbodiimide hydrochloride (EDC)/0.1 M N-hydroxy succinimide (NHS) at a flow rate of 10 it/min. For capture of streptavidin, the protein was diluted to 0.2 mg/ml in 10 mM sodium acetate (pH 4.5) and captured by injecting 120 μl onto the activated chip surface. Residual activated groups were blocked with a 7 min injection of 1 M ethanolamine (pH 8.5):HBS-N (1:1). Buffer was changed to PBS/0.05% Tween 20 and biotinylated EphA2 was captured to a level of 500-1500 RU using a dilution of protein to 0.2 μM in buffer. A dilution series of the peptides was prepared in this buffer with a final DMSO concentration of 0.5% with a top peptide concentration was 50 or 100 nM and 6 further 2-fold dilutions. The SPR analysis was run at 25° C. at a flow rate of 90 μl/min with 60 seconds association and 900-1200 seconds dissociation. Data were corrected for DMSO excluded volume effects. All data were double-referenced for blank injections and reference surface using standard processing procedures and data processing and kinetic fitting were performed using Scrubber software, version 2.0c (BioLogic Software). Data were fitted using simple 1:1 binding model allowing for mass transport effects where appropriate."}, "[2]": {"molecular_target": "T1, CD137 (Homo sapiens, UniProt Q07011)", "T1 sequence (Q07011 24-255)": "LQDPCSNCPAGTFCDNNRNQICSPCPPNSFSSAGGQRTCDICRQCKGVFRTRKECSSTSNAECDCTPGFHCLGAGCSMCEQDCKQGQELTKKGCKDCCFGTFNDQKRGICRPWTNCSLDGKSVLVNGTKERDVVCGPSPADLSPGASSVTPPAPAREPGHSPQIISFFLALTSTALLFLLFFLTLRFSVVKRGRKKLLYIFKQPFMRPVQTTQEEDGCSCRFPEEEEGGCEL", "assay": "CD137 Biacore (SPR) binding assay", "set-up": "purchased R&D systems", "conditions": "biotinylated human CD137, 25° C.", "description": "Biacore experiments were performed to determine ka (M^−1s^−1), kd (s^−1), KD (nM) values of heterotandem peptides binding to human CD137 protein. […] The protein was desalted to remove uncoupled biotin using spin columns into PBS.\nFor analysis of peptide binding, a Biacore T200 or a Biacore 3000 instrument was used with a XanTec CMD500D chip. Streptavidin was immobilized on the chip using standard amine-coupling chemistry at 25° C. with HBS-N (10 mM HEPES, 0.15 M NaCl, pH 7.4) as the running buffer. Briefly, the carboxymethyl dextran surface was activated with a 7 min injection of a 1:1 ratio of 0.4 M 1-ethyl-3-(3-dimethylaminopropyl) carbodiimide hydrochloride (EDC)/0.1 M N-hydroxy succinimide (NHS) at a flow rate of 10 μl/min. For capture of streptavidin, the protein was diluted to 0.2 mg/ml in 10 mM sodium acetate (pH 4.5) and captured by injecting 120 μl of onto the activated chip surface. Residual activated groups were blocked with a 7 min injection of 1 M ethanolamine (pH 8.5) and biotinylated CD137 captured to a level of 270-1500 RU. Buffer was changed to PBS/0.05% Tween 20 and a dilution series of the peptides was prepared in this buffer with a final DMSO concentration of 0.5%. The top peptide concentration was 500 nM with 6 further 2-fold or 3-fold dilutions. The SPR analysis was run at 25° C. at a flow rate of 90 μl/min with 60 seconds association and 900 seconds dissociation. After each cycle a regeneration step (10 μl of 10 mM glycine pH 2) was employed. Data were corrected for DMSO excluded volume effects as needed. All data were double-referenced for blank injections and reference surface using standard processing procedures and data processing and kinetic fitting were performed using Scrubber software, version 2.0c (BioLogic Software). Data were fitted using simple 1:1 binding model allowing for mass transport effects where appropriate."}, "[3]": {"molecular_target": "T1, CD137", "assay": "CD137 reporter assay, co-culture with EphA2 tumour cells", "assay_type": "cell-based", "set-up": "host or cells: Jurkat reporter cells", "conditions": "tumour target EphA2, co-culture with SC-OV-3, 6 h", "how_it_was_run": "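Jurkat CD137 reporter cells co-cultured with tumour cells and serially diluted test articles in RPMI-1640 + 1% FBS, 6 h at 37 °C, 5% CO2. Luminescence read after Bio-Glo; fold change over cells-only background fitted log(agonist) vs response for EC50 (nM) and maximal fold induction.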"}},
  "data": [
    {"smiles": "CCCC[C@@H]1NC(=O)[C@H](Cc2ccc(O)cc2)NC(=O)[C@@H]2CCCN2C(=O)[C@H](CC(=O)O)NC(=O)[C@H](C)NC(=O)[C@H](Cc2ccccc2)NC(=O)[C@@H]2CSCCC(=O)N3CN(CN(C3)C(=O)CCSC[C@@H](C(=O)N[C@@H](CNC(=O)CCc3cn(CCOCCOCCOCCOCCOCCOCCOCCOCCOCCOCCNC(=O)NCCC(=O)N(C)CC(=O)N(C)CC(=O)N(C)CC(=O)N(C)CC(=O)N(C)CC(=O)N(C)CC(=O)N(C)CC(=O)N(C)CC(=O)N(C)CC(=O)N(C)CC(=O)N[C@@H](C)C(=O)N[C@@H](CCCCNC(=N)N)C(=O)N[C@@H](CC(=O)O)C(=O)N[C@H]4CSCCC(=O)N5CN6CN(C5)C(=O)CCSC[C@H](NC(=O)[C@H](CC(C)C)NC(=O)[C@@H]5CCCN5C(=O)[C@H](CC(N)=O)NC(=O)[C@H](C(C)C)NC(=O)[C@H](CC(C)C)NC(=O)[C@@H]5C[C@@H](O)CN5C4=O)C(=O)N[C@@H](CC(C)C)C(=O)N[C@@H](Cc4c[nH]cn4)C(=O)N4CCC[C@H]4C(=O)N[C@H](CC(=O)O)C(=O)N[C@@H](Cc4c[nH]c5ccccc45)C(=O)N[C@@H](CCCCNC(=N)N)C(=O)N[C@H](C(N)=O)CSCCC6=O)nn3)C(N)=O)NC1=O)C(=O)CCSC[C@H](NC(=O)[C@H](C)NC(C)=O)C(=O)N[C@@H]([C@@H](C)CC)C(=O)N[C@@H](CCC(=O)O)C(=O)N[C@@H](CCC(=O)O)C(=O)NCC(=O)N[C@@H](CCC(N)=O)C(=O)N[C@@H](Cc1ccc(O)cc1)C(=O)N2", "note": "[BCY9647]", "values": [
      {"measurement": "Kd", "setting": "[1]", "value": 1.69, "unit": "nM"},
      {"measurement": "Kd", "setting": "[2]", "value": 206, "unit": "nM"},
      {"measurement": "EC50", "setting": "[3]", "value": 7.2, "unit": "nM"},
      {"measurement": "Fold Induction over Background", "setting": "[3]", "value": 24, "unit": "fold"}
    ]},
    {"smiles": "CCCC[C@@H]1NC(=O)[C@H](Cc2ccc(O)cc2)NC(=O)[C@@H]2CCCN2C(=O)[C@H](CC(=O)O)NC(=O)[C@H](C)NC(=O)[C@H](Cc2ccccc2)NC(=O)[C@@H]2CSCCC(=O)N3CN(CN(C3)C(=O)CCSC[C@@H](C(=O)N[C@@H](CNC(=O)CCc3cn(CCOCCOCCOCCOCCOCCOCCOCCOCCOCCOCCOCCOCCOCCOCCOCCOCCOCCOCCOCCOCCOCCOCCOCCNC(=O)NCCC(=O)N(C)CC(=O)N(C)CC(=O)N(C)CC(=O)N(C)CC(=O)N(C)CC(=O)N(C)CC(=O)N(C)CC(=O)N(C)CC(=O)N(C)CC(=O)N(C)CC(=O)N[C@@H](C)C(=O)N[C@@H](CCCCNC(=N)N)C(=O)N[C@@H](CC(=O)O)C(=O)N[C@H]4CSCCC(=O)N5CN6CN(C5)C(=O)CCSC[C@H](NC(=O)[C@H](CC(C)C)NC(=O)[C@@H]5CCCN5C(=O)[C@H](CC(N)=O)NC(=O)[C@H](C(C)C)NC(=O)[C@H](CC(C)C)NC(=O)[C@@H]5C[C@@H](O)CN5C4=O)C(=O)N[C@@H](CC(C)C)C(=O)N[C@@H](Cc4c[nH]cn4)C(=O)N4CCC[C@H]4C(=O)N[C@H](CC(=O)O)C(=O)N[C@@H](Cc4c[nH]c5ccccc45)C(=O)N[C@@H](CCCCNC(=N)N)C(=O)N[C@H](C(N)=O)CSCCC6=O)nn3)C(N)=O)NC1=O)C(=O)CCSC[C@H](NC(=O)[C@H](C)NC(C)=O)C(=O)N[C@@H]([C@@H](C)CC)C(=O)N[C@@H](CCC(=O)O)C(=O)N[C@@H](CCC(=O)O)C(=O)NCC(=O)N[C@@H](CCC(N)=O)C(=O)N[C@@H](Cc1ccc(O)cc1)C(=O)N2", "note": "[BCY9648]", "values": [
      {"measurement": "Kd", "setting": "[1]", "value": 1.75, "unit": "nM"},
      {"measurement": "Kd", "setting": "[2]", "value": 202, "unit": "nM"},
      {"measurement": "EC50", "setting": "[3]", "value": 9.3, "unit": "nM"},
      {"measurement": "Fold Induction over Background", "setting": "[3]", "value": 20, "unit": "fold"}
    ]},
    {"smiles": "CCCC[C@@H]1NC(=O)[C@H](Cc2ccc(O)cc2)NC(=O)[C@@H]2CCCN2C(=O)[C@H](CC(=O)O)NC(=O)[C@H](C)NC(=O)[C@H](Cc2ccccc2)NC(=O)[C@@H]2CSCCC(=O)N3CN(CN(C3)C(=O)CCSC[C@@H](C(=O)N[C@@H](CNC(=O)CCc3cn(CCCNC(=O)CN(C)C(=O)CN(C)C(=O)CN(C)C(=O)CN(C)C(=O)CN(C)C(=O)CCOCCOCCOCCOCCOCCOCCOCCOCCOCCOCCOCCOCCOCCOCCOCCNC(=O)NCCC(=O)N(C)CC(=O)N(C)CC(=O)N(C)CC(=O)N(C)CC(=O)N(C)CC(=O)N(C)CC(=O)N(C)CC(=O)N(C)CC(=O)N(C)CC(=O)N(C)CC(=O)N[C@@H](C)C(=O)N[C@@H](CCCCNC(=N)N)C(=O)N[C@@H](CC(=O)O)C(=O)N[C@H]4CSCCC(=O)N5CN6CN(C5)C(=O)CCSC[C@H](NC(=O)[C@H](CC(C)C)NC(=O)[C@@H]5CCCN5C(=O)[C@H](CC(N)=O)NC(=O)[C@H](C(C)C)NC(=O)[C@H](CC(C)C)NC(=O)[C@@H]5C[C@@H](O)CN5C4=O)C(=O)N[C@@H](CC(C)C)C(=O)N[C@@H](Cc4c[nH]cn4)C(=O)N4CCC[C@H]4C(=O)N[C@H](CC(=O)O)C(=O)N[C@@H](Cc4c[nH]c5ccccc45)C(=O)N[C@@H](CCCCNC(=N)N)C(=O)N[C@H](C(N)=O)CSCCC6=O)nn3)C(N)=O)NC1=O)C(=O)CCSC[C@H](NC(=O)[C@H](C)NC(C)=O)C(=O)N[C@@H]([C@@H](C)CC)C(=O)N[C@@H](CCC(=O)O)C(=O)N[C@@H](CCC(=O)O)C(=O)NCC(=O)N[C@@H](CCC(N)=O)C(=O)N[C@@H](Cc1ccc(O)cc1)C(=O)N2", "note": "[BCY9655]", "values": [
      {"measurement": "Kd", "setting": "[1]", "value": 1.33, "unit": "nM"},
      {"measurement": "Kd", "setting": "[2]", "value": 199, "unit": "nM"},
      {"measurement": "EC50", "setting": "[3]", "value": 4.1, "unit": "nM"},
      {"measurement": "Fold Induction over Background", "setting": "[3]", "value": 6, "unit": "fold"}
    ]},
    {"smiles": "CCCC[C@@H]1NC(=O)[C@H](Cc2ccc(O)cc2)NC(=O)[C@@H]2CCCN2C(=O)[C@H](CC(=O)O)NC(=O)[C@H](C)NC(=O)[C@H](Cc2ccccc2)NC(=O)[C@@H]2CSCCC(=O)N3CN(CN(C3)C(=O)CCSC[C@@H](C(=O)N[C@@H](CNC(=O)CCc3cn(CCCNC(=O)CN(C)C(=O)CN(C)C(=O)CN(C)C(=O)CN(C)C(=O)CN(C)C(=O)CN(C)C(=O)CN(C)C(=O)CN(C)C(=O)CN(C)C(=O)CN(C)C(=O)COCCOCCOCCOCCOCCOCCOCCOCCOCCOCCNC(=O)NCCC(=O)N(C)CC(=O)N(C)CC(=O)N(C)CC(=O)N(C)CC(=O)N(C)CC(=O)N(C)CC(=O)N(C)CC(=O)N(C)CC(=O)N(C)CC(=O)N(C)CC(=O)N[C@@H](C)C(=O)N[C@@H](CCCCNC(=N)N)C(=O)N[C@@H](CC(=O)O)C(=O)N[C@H]4CSCCC(=O)N5CN6CN(C5)C(=O)CCSC[C@H](NC(=O)[C@H](CC(C)C)NC(=O)[C@@H]5CCCN5C(=O)[C@H](CC(N)=O)NC(=O)[C@H](C(C)C)NC(=O)[C@H](CC(C)C)NC(=O)[C@@H]5C[C@@H](O)CN5C4=O)C(=O)N[C@@H](CC(C)C)C(=O)N[C@@H](Cc4c[nH]cn4)C(=O)N4CCC[C@H]4C(=O)N[C@H](CC(=O)O)C(=O)N[C@@H](Cc4c[nH]c5ccccc45)C(=O)N[C@@H](CCCCNC(=N)N)C(=O)N[C@H](C(N)=O)CSCCC6=O)nn3)C(N)=O)NC1=O)C(=O)CCSC[C@H](NC(=O)[C@H](C)NC(C)=O)C(=O)N[C@@H]([C@@H](C)CC)C(=O)N[C@@H](CCC(=O)O)C(=O)N[C@@H](CCC(=O)O)C(=O)NCC(=O)N[C@@H](CCC(N)=O)C(=O)N[C@@H](Cc1ccc(O)cc1)C(=O)N2", "note": "[BCY9656]", "values": [
      {"measurement": "Kd", "setting": "[1]", "value": 0.75, "unit": "nM"},
      {"measurement": "Kd", "setting": "[2]", "value": 159, "unit": "nM"},
      {"measurement": "EC50", "setting": "[3]", "value": 1.1, "unit": "nM"},
      {"measurement": "Fold Induction over Background", "setting": "[3]", "value": 3, "unit": "fold"}
    ]}
  ]
}
